Reference: article PMC10674233, “Design, Synthesis, In Vitro, and In Silico Studies of New N^5-Substituted-pyrazolo[3,4-d]pyrimidinone Derivatives as Anticancer CDK2 Inhibitors” (Pharmaceuticals, 2023)

Key:
HCT116 cells = assay: MTT antiproliferative assay, HCT116 cells; type: cell-based; settings: Homo sapiens, HCT-116, HCT116 CRC cell line, triplicate, read-out: IC50 ± SD HCT116
HepG2 cells = assay: MTT antiproliferative assay, HepG2 cells; type: cell-based; settings: Homo sapiens, HepG2 HCC cell line, triplicate, read-out: IC50 ± SD HepG2
[1] = tested on: normal human fibroblast cell line (WI-38); assay: MTT cytotoxicity assay, normal human fibroblast cell line WI-38; type: cell-based; settings: WI-38 normal human fibroblasts, read-out: IC50 ± SD WI-38
CDK2/CyclinA2 = target: T1, CDK2/CyclinA2 (Homo sapiens, UniProt P24941); assay: In vitro enzymatic CDK2 inhibition assay (Kinase-Glo luminescence kit); type: biochemical; settings: triplicate; read-out: CDK2 Inhibition IC50 ± SD
T1 construct: purchased BPS Bioscience Inc. (San Diego, CA, USA)
Method: . […]. In vitro evaluation of CDK2 inhibition was determined using a commercially available assay kit from BPS Bioscience Inc. (San Diego, CA, USA) as described in the Supplementary Information. […]
serum. After that, the reconstituted MTT was added in an amount equal to 10% of the culture medium volume. Cultures were returned to incubator for 2-4 hours depending on cell type and maximum cell density. Incubation times should be consistent when making comparisons. After the incubation period, cultures were removed from incubator and the resulting formazan crystals were dissolved by adding an amount of MTT Solubilization Soluti on [M-8910] equal to the original culture medium volume. Occasionally, especially in dense cultures, pipetting up and down [trituration] may be required to completely dissolve the MTT formazan crystals.
Absorbance was measured spectrophotometrically at a wavelength of 570 nm. The background absorbance of multiwell plates was measured at 690 nm and subtract from the 570 nm […]
2.2. CDK2/Cyclin A2 inhibitory activity
Promega Kinase-Glo Plus luminescence kinase assay protocol was adopted as reported. […]
reaction by adding 20 μl of diluted CDK2/CyclinA2 enzyme to the wells designated “Positive Control” and "Test Inhibitor Control". […] Measure luminescence using the microplate reader. “Blank” value is subtracted from all readings. […]

Row | SMILES | IC50 (HCT116 cells) [µM] | IC50 (HepG2 cells) [µM] | melting point [°C] | IC50 [1] [µM] | IC50 (CDK2/CyclinA2) [µM]
1 | Cc1nc2c(cnn2-c2ccccc2)c(=O)n1CC(=O)Nc1cccc2ccccc12 [Compound 4e] | 41.2 ± 1.83 | 16.1 ± 0.81 | – | – | –
2 | Cc1ccc(C(=O)Cn2c(C)nc3c(cnn3-c3ccccc3)c2=O)cc1 [Compound 3b] | 10.8 ± 0.48 | 1.9 ± 0.1 | – | – | –
3 | COc1cccc(NC(=O)Cn2c(C)nc3c(cnn3-c3ccccc3)c2=O)c1 [Compound 4c] | 26.4 ± 1.17 | 87.3 ± 4.42 | 220 to 225 | – | –
4 | Cc1nc2c(cnn2-c2ccccc2)c(=O)n1CC(=O)Nc1ccc(Cl)cc1 [Compound 4b] | 3.38 ± 0.15 | 2.57 ± 0.13 | – | 48.5 | 0.96 ± 0.05
5 | COC(=O)Cn1c(C)nc2c(cnn2-c2ccccc2)c1=O [Compound 2a] | 19.4 ± 0.86 | 32.9 ± 1.67 | – | – | –
6 | Cc1nc2c(cnn2-c2ccccc2)c(=O)n1CC(=O)c1ccc(Cl)cc1 [Compound 3a] | 35.9 ± 1.59 | 26.2 ± 1.33 | – | – | –
7 | CCOC(=O)Cn1c(C)nc2c(cnn2-c2ccccc2)c1=O [Compound 2b] | 10.9 ± 0.48 | 58 ± 2.94 | – | – | –
8 | Cc1nc2c(cnn2-c2ccccc2)c(=O)n1CC(=O)Nc1ccc(F)cc1 [Compound 4a] | 1.09 ± 0.05 | 0.58 ± 0.03 | – | 58.6 | 0.21 ± 0.01
